Some results are limits rather than exact numbers.

T1 sequence (Q86W56 whole entry): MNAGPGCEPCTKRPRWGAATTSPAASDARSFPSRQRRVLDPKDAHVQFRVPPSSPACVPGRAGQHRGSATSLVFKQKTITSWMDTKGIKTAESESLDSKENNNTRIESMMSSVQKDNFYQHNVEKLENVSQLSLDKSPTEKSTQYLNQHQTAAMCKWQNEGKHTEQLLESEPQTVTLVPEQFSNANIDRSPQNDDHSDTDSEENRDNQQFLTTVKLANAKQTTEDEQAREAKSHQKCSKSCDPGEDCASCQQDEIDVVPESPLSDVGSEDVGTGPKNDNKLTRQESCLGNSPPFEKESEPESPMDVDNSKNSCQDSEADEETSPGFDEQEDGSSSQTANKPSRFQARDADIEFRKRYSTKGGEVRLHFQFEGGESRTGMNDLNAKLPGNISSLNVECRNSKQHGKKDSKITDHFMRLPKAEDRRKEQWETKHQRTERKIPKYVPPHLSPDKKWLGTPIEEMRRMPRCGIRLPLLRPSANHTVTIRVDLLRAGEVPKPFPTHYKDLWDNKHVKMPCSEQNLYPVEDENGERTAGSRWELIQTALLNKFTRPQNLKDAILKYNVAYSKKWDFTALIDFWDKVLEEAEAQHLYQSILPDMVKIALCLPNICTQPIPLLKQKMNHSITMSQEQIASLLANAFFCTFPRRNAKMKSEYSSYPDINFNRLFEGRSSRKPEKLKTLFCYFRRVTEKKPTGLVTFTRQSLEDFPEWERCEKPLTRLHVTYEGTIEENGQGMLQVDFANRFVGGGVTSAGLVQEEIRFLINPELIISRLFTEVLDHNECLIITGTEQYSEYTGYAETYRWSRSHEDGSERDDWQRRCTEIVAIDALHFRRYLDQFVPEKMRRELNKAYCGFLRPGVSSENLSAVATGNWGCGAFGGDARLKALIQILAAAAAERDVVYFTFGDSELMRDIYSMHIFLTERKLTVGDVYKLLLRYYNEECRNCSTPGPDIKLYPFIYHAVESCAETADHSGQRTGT

This experiment has as its target T1, cellular PARG (Homo sapiens, UniProt Q86W56).
T1 construct: endogenous in cells; host or cells: HeLa
The experiment is described as follows: Nuclear PAR accumulation assay (immunofluorescence high-content imaging, MMS-treated HeLa cells). The class given is cell-based. The conditions noted are these: 1 hour compound then MMS 50 μg/mL for an additional hour. Put shortly: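 HeLa cells pretreated with compound for 1 h at 37° C, then given 50 μg/mL MMS for another hour. After methanol fixation, PAR was immunostained with DAPI nuclear counterstain; per-nucleus intensity and percent PAR-positive cells were imaged at 20× (≥1,000 cells/well). IC50 from four-parameter logistic fit.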
`[2H]C([2H])(c1cnn(C)c1)N1C(=O)c2cc(S(=O)(=O)NC3(C)CC3)ccc2N2C1=NC[C@@H]2C#C` [Example 90, (S)-1-ethynyl-4-((1-methyl-1H-pyrazol-4-yl)methyl-d2)-N-(1-methylcyclopropyl)-5-oxo-1,2,4,5-tetrahydroimidazo[1,2-a]quinazoline-7-sulfonamide] gave an IC50 of 100 to 1000 nM.
Next, `Cn1cc(C#C[C@H]2CN=C3N(Cc4cnn(C)c4)C(=O)c4cc(S(=O)(=O)NC5(C)CC5)ccc4N32)cn1` [Example 91, (S′)-1-((1-methyl-1H-pyrazol-4-yl)ethynyl)-4-((1-methyl-1H-pyrazol-4-yl)methyl)-N-(1-methylcyclopropyl)-5-oxo-1,2,4,5-tetrahydroimidazo[1,2-a]quinazoline-7-sulfonamide]: 100 to 1000 nM.
With `[2H]C([2H])(c1cnn(C)c1)N1C(=O)c2cc(S(=O)(=O)NC3(C)CC3)cc(Cl)c2N2C1=NC[C@@H]2C#CC1CC1` [Example 92, (S)-9-chloro-1-(cyclopropylethynyl)-4-((1-methyl-1H-pyrazol-4-yl)methyl-d2)-N-(1-methylcyclopropyl)-5-oxo-1,2,4,5-tetrahydroimidazo[1,2-a]quinazoline-7-sulfonamide], the 50% inhibitory concentration (IC50) was 100 to 1000 nM.
`Cn1cc(CN2C(=O)c3cc(S(=O)(=O)NC4(C)CC4)ccc3N3C2=NC[C@@H]3C2CCCC2)cn1` [Example 93, (S)-1-cyclopentyl-4-((1-methyl-1H-pyrazol-4-yl)methyl)-N-(1-methylcyclopropyl)-5-oxo-1,2,4,5-tetrahydroimidazo[1,2-a]quinazoline-7-sulfonamide] yielded an IC50 of 100 to 1000 nM.
Compound `C#C[C@H]1CN=C2N(Cc3cnn(C)c3)C(=O)c3cc(S(=O)(=O)NC4(C)CC4)cc(Br)c3N21` [Example 94, (S)-9-bromo-1-ethynyl-4-((1-methyl-1H-pyrazol-4-yl)methyl)-N-(1-methylcyclopropyl)-5-oxo-1,2,4,5-tetrahydroimidazo[1,2-a]quinazoline-7-sulfonamide] displayed an IC50 of 100 to 1000 nM.
Next, `[2H]C([2H])(c1cnn(C)c1)N1C(=O)c2cc(S(=O)(=O)NC3(C)CC3)cc(Br)c2N2C1=NC[C@@H]2C#CC1CC1` [Example 95, (S)-9-bromo-1-(cyclopropylethynyl)-4-((1-methyl-1H-pyrazol-4-yl)methyl-d2)-N-(1-methylcyclopropyl)-5-oxo-1,2,4,5-tetrahydroimidazo[1,2-a]quinazoline-7-sulfonamide]: 100 to 1000 nM; `[2H]C([2H])(c1cnn(C)c1)N1C(=O)c2cc(S(=O)(=O)NC3(C)CC3)ccc2N2C1=NC[C@H]2C#CCC(C)C` [Example 96, (R)-4-((1-methyl-1H-pyrazol-4-yl)methyl-d2)-N-(1-methylcyclopropyl)-1-(4-methylpent-1-yn-1-yl)-5-oxo-1,2,4,5-tetrahydroimidazo[1,2-a]quinazoline-7-sulfonamide]: less than 100 nM; `[2H]C([2H])(c1cnn(C)c1)N1C(=O)c2cc(S(=O)(=O)NC3(C)CC3)ccc2N2C1=NC[C@H]2C#Cc1cnn(C)c1` [Example 97, (R)-1-((1-methyl-1H-pyrazol-4-yl)ethynyl)-4-((1-methyl-1H-pyrazol-4-yl)methyl-d2)-N-(1-methylcyclopropyl)-5-oxo-1,2,4,5-tetrahydroimidazo[1,2-a]quinazoline-7-sulfonamide]: less than 100 nM.
Next, `[2H]C([2H])(c1cnn(C)c1)N1C(=O)c2cc(S(=O)(=O)NC3(C)CC3)cc(Br)c2N2C1=NC[C@H]2C#C` [Example 98, (R)-9-bromo-1-ethynyl-4-((1-methyl-1H-pyrazol-4-yl)methyl-d2)-N-(1-methylcyclopropyl)-5-oxo-1,2,4,5-tetrahydroimidazo[1,2-a]quinazoline-7-sulfonamide]: less than 100 nM.
Next, `Cn1cc(CN2C(=O)c3cc(S(=O)(=O)NC4(C)CC4)ccc3N3C2=NC[C@H]3C#CC(F)F)cn1` [Example 99, (R)-1-(3,3-difluoroprop-1-yn-1-yl)-4-((1-methyl-1H-pyrazol-4-yl)methyl)-N-(1-methylcyclopropyl)-5-oxo-1,2,4,5-tetrahydroimidazo[1,2-a]quinazoline-7-sulfonamide]: less than 100 nM.
In the case of `CN(C)CC#C[C@@H]1CN=C2N(Cc3cnn(C)c3)C(=O)c3cc(S(=O)(=O)NC4(C)CC4)cc(Cl)c3N21` [Example 100, (R)-9-chloro-1-(3-(dimethylamino)prop-1-yn-1-yl)-4-((1-methyl-1H-pyrazol-4-yl)methyl)-N-(1-methylcyclopropyl)-5-oxo-1,2,4,5-tetrahydroimidazo[1,2-a]quinazoline-7-sulfonamide], the IC50 is less than 100 nM.
As to `[2H]C([2H])(c1cnn(C)c1)N1C(=O)c2cc(S(=O)(=O)NC3(C)CC3)ccc2N2C1=NC[C@H]2C#Cc1cn(C)nc1F` [Example 101, (R)-1-((3-fluoro-1-methyl-1H-pyrazol-4-yl)ethynyl)-4-((1-methyl-1H-pyrazol-4-yl)methyl-d2)-N-(1-methylcyclopropyl)-5-oxo-1,2,4,5-tetrahydroimidazo[1,2-a]quinazoline-7-sulfonamide], the concentration for half-maximal inhibition (IC50) is less than 100 nM.
The compound `Cn1cc(CN2C(=O)c3cc(S(=O)(=O)NC4(C)CC4)cc(Cl)c3N3C2=NC[C@H]3C#CCN)cn1` [Example 103, (R)-1-(3-aminoprop-1-yn-1-yl)-9-chloro-4-((1-methyl-1H-pyrazol-4-yl)methyl)-N-(1-methylcyclopropyl)-5-oxo-1,2,4,5-tetrahydroimidazo[1,2-a]quinazoline-7-sulfonamide] registered an IC50 of 100 to 1000 nM.
Next, `[2H]C([2H])(c1cnn(C)c1)N1C(=O)c2cc(S(=O)(=O)NC3(C)CC3)ccc2N2C1=NC[C@H]2C#Cc1cccc(N)n1` [Example 104, (R)-1-((6-aminopyridin-2-yl)ethynyl)-4-((1-methyl-1H-pyrazol-4-yl)methyl-d2)-N-(1-methylcyclopropyl)-5-oxo-1,2,4,5-tetrahydroimidazo[1,2-a]quinazoline-7-sulfonamide]: less than 100 nM; `[2H]C([2H])(c1cnn(C)c1)N1C(=O)c2cc(S(=O)(=O)NC3(C)CC3)ccc2N2C1=NC[C@H]2C#CC(C)(C)N` [Example 105, (R)-1-(3-amino-3-methylbut-1-yn-1-yl)-4-((1-methyl-1H-pyrazol-4-yl)methyl-d2)-N-(1-methylcyclopropyl)-5-oxo-1,2,4,5-tetrahydroimidazo[1,2-a]quinazoline-7-sulfonamide]: 100 to 1000 nM.
With `[2H]C([2H])(c1cnn(C)c1)N1C(=O)c2cc(S(=O)(=O)NC3(C)CC3)ccc2N2C1=N[C@H]1CNC[C@H]12` [Example 106, (7aS,10aR)-6-((1-methyl-1H-pyrazol-4-yl)methyl-d2)-N-(1-methylcyclopropyl)-5-oxo-6,7a,8,9,10,10a-hexahydro-5H-pyrrolo[3′,4′:4,5]imidazo[1,2-a]quinazoline-3-sulfonamide], the IC50 lay in the range of 100 to 1000 nM.
The compound `Cc1cc([C@@H]2CN=C3N(Cc4cnn(C)c4)C(=O)c4cc(S(=O)(=O)NC5(C)CC5)ccc4N32)on1` [Example 107, (S)-4-((1-methyl-1H-pyrazol-4-yl)methyl)-N-(1-methylcyclopropyl)-1-(3-methylisoxazol-5-yl)-5-oxo-1,2,4,5-tetrahydroimidazo[1,2-a]quinazoline-7-sulfonamide] came in with an IC50 of less than 100 nM.
Next, `[2H]C([2H])(c1cnn(C)c1)N1C(=O)c2cc(S(=O)(=O)NC3(C)CC3)ccc2N2C1=NC[C@H]2COc1cnn(C)c1` [Example 108, (S)-4-((1-methyl-1H-pyrazol-4-yl)methyl-d2)-1-(((1-methyl-1H-pyrazol-4-yl)oxy)methyl)-N-(1-methylcyclopropyl)-5-oxo-1,2,4,5-tetrahydroimidazo[1,2-a]quinazoline-7-sulfonamide]: less than 100 nM; `[2H]C([2H])(c1cnn(C)c1)N1C(=O)c2cc(S(=O)(=O)NC3(C)CC3)ccc2N2C1=NCC21CC(CN(C)C)C1` (centres unmarked) [Example 109, 3-((dimethylamino)methyl)-4′-((1-methyl-1H-pyrazol-4-yl)methyl-d2)-N-(1-methylcyclopropyl)-5′-oxo-4′,5′-dihydro-2′H-spiro[cyclobutane-1,1′-imidazo[1,2-a]quinazoline]-7′-sulfonamide]: 100 to 1000 nM; `[2H]C([2H])(c1cnn(C)c1)N1C(=O)c2cc(S(=O)(=O)NC3(C)CC3)ccc2N2C1=NC[C@H]2COc1ccccn1` [Example 110, (S)-4-((1-methyl-1H-pyrazol-4-yl)methyl-d2)-N-(1-methylcyclopropyl)-5-oxo-1-((pyridin-2-yloxy)methyl)-1,2,4,5-tetrahydroimidazo[1,2-a]quinazoline-7-sulfonamide]: less than 100 nM.
Next, `[2H]C([2H])(c1cnn(C)c1)N1C(=O)c2cc(S(=O)(=O)NC3(C)CC3)cc(Cl)c2N2C1=NC[C@H]2C#C` [Example 111, (R)-9-chloro-1-ethynyl-4-((1-methyl-1H-pyrazol-4-yl)methyl-d2)-N-(1-methylcyclopropyl)-5-oxo-1,2,4,5-tetrahydroimidazo[1,2-a]quinazoline-7-sulfonamide]: less than 100 nM; `[2H]C([2H])(c1cnn(C)c1)N1C(=O)c2cc(S(=O)(=O)NC3(C)CC3)ccc2N2C1=NC[C@H]2C#CC1(N(C)C)CC1` [Example 112, (R)-1-((1-(dimethylamino)cyclopropyl)ethynyl)-4-((1-methyl-1H-pyrazol-4-yl)methyl-d2)-N-(1-methylcyclopropyl)-5-oxo-1,2,4,5-tetrahydroimidazo[1,2-a]quinazoline-7-sulfonamide]: less than 100 nM; `[2H]C([2H])(c1cnn(C)c1)N1C(=O)c2cc(S(=O)(=O)NC3(C)CC3)ccc2N2C1=NC[C@H]2CSC` [Example 113, (S)-4-((1-methyl-1H-pyrazol-4-yl)methyl-d2)-N-(1-methylcyclopropyl)-1-((methylthio)methyl)-5-oxo-1,2,4,5-tetrahydroimidazo[1,2-a]quinazoline-7-sulfonamide]: less than 100 nM.

Broadly, the IC50 is the point on the concentration scale where inhibition reaches its midpoint. A low value points to greater potency.
